Results published in patent US6544727B1, “Methods and devices for the removal of psoralens from blood products” (Cerus Corporation, priority 1995, dated 2003).
“Also recorded” adds a separate entry of the source. Read-outs that look alike come from different tables or passages of the source.

Key:
[1] = test system: Duck Hepatitis B Virus (DHBV); assay: Inactivation of Duck Hepatitis B Virus in platelet concentrate, read by PCR amplification; assay type: biochemical; settings: 5 J/cm^2 UVA
Experimental: DHBV in duck yolk was added to platelet concentrate (PC) to a final concentration of 2×10^7 particles per mL and mixed by gentle rocking for ≧15 min. […] Samples, including controls without added psoralen, were irradiated with 5 J/cm^2 UVA, with mixing at 1 J/cm^2 increments. After irradiation, leukocytes and platelets were separated from virus by centrifugation. The supernatant containing DHBV was digested overnight with 50 μg/mL proteinase K in a buffer containing 0.5% sodium dodecyl sulphate, 20 mM Tris buffer, pH 8.0, and 5 mM EDTA at 55° C. Samples were extracted with phenol-chloroform and chloroform, followed by ethanol precipitation. Purified DNA was then used in PCR amplification reactions with a starting input of 10^6 DHBV genomes from each sample. […] The amplification was followed by a 7 min incubation at 72° C. to yield full length products. [[…]-^32P] dCTP was added at an amount of […] in order to detect and quantify the resulting products. Products were separated by electrophoresis on denaturing polyacrylamide slab gels and counted. The absence of signal in a given reaction was taken to indicate effective inactivation of DHBV.

[2] = test system: Chinese hamster ovary (CHO) cells; assay: In vitro genotoxicity screen in CHO cells; settings: approximately 3 hours exposure in the dark
Source text: In such studies, cells are exposed to chemicals with and/or without rat S-9 metabolic activation system (S-9) and are later examined for either cell survival (for a genotoxicity screen) or for changes in chromosome structure (for a chromosome aberration assay).
Chinese hamster ovary (CHO; ATCC CCL 61 CHO-K1, proline-requiring) cells were used for the in vitro genotoxicity and chromosomal aberration tests. CHO cells are used extensively for cytogenic testing because they have a relatively low number of chromosomes (2n=20) and a rapid rate of multiplication (˜12 to 14 hours, depending on culture conditions). The cells were grown in an atmosphere of 5% CO2 at approximately 37° C. in McCoy's 5a medium with 15% fetal bovine serum (FBS), 2 mM L-glutamine, and 1% penicillin-streptomycin solution to maintain exponential growth. This medium was also used during exposure of the cells to the test compound when no S-9 was used. Cell cultures were maintained and cell exposures were performed in T-75 or T-25 flasks.
Each of the sample compounds were tested at seven dilutions, 1, 3, 10, 33, 100, 333, and 1000 μg/ml. […]
After approximately 2.5 hours in colchicine, the cells were harvested. […] The cell density and metaphase quality on the initial slide from each flask was monitored using a phase-contrast microscope; at least two slides of appropriate cell density were prepared from each flask. […]

platelets = assay: Platelet count, Sysmex cell counter; assay type: cell-based, human; settings: 100 μM compound, 5 Joules/cm^2, Day 5; FIGS. 21A-24A
Experimental: Samples were diluted 1:3 in blood bank saline.

[3] = test system: H9 cells chronically infected with HIVIIIB; assay: Inactivation of cell-associated HIV in platelet concentrate, HIV microplaque assay; assay type: cell-based; settings: for log inactivation of HIV, dark control: 150 μM psoralen, no UVA; for logs of HIV inactivated: 150 μM, 3 Joules/cm^2, cell-associated HIV in platelet concentrate
Experimental: H9 cells chronically infected with HIVIIIB were used. (H9/HTLV-III-B NIH 1983 Cat.#400). Cultures of these cells were maintained in high glucose Dulbecco Modified Eagle Medium supplemented with 2 mM L-glutamine, 200 u/mL penicillin, 200 μg/ml streptomycin, and 9% fetal bovine serum (Intergen Company, Purchase, N.Y.) For maintenance, the culture was split once a week, to a density of 3×10^5 to 4×10^5 cells/ml and about four days after splitting, 3.3% sodium bicarbonate was added as needed. For the inactivation procedure, the cells were used three days after they were split. They were pelleted from their culture medium at 400 g×10 minutes, the supernatant was discarded, and the cells were resuspended in one to five day old human platelet concentrate (PC) (pH 7.5-6.5), to a concentration of 2×10^6 cells/ml. Aliquots of the PC-infected cell suspension were made for psoralen free dark controls, for psoralen free UVA only controls, for psoralen dark controls, and for the psoralen plus UVA experimental sample. Concentrated filter-sterilized stock solutions of each psoralen in water were diluted into the appropriate aliquots to yield a final concentration of 150 μM. […] After an equilibration period of thirty minutes at room temperature, 0.5 ml of each of the dark controls was placed in a cryovial and stored in the dark at −80° C. For UVA illumination, 8 ml of the psoralen free aliquot and 8 ml of each psoralen containing aliquot were introduced into a modified Fl 20 Teflon™ bag (modified to be 92 cm^2 total surface area, The West Co., Phoenixvill, Pa.) via a plastic disposable 10 ml syringe attached to one of the polypropylne ports on the bag. This gave an average path length of 0.17 cm. The bags were then illuminated for a total exposure of 3 Joules/cm^2 in the device described in Example 1, above, attached to a circulating refrigerating water bath set at 4° C., which maintains the temperature in the bag at approximately 22-25° C. During exposure, the device was shaken on a platelet shaker (Helmer Labs, Noblesville, Ind.). After exposure, the contents of the bags were withdrawn by a fresh syringe through the remaining unused port on the bag, and placed in cryovials for storage in the dark at −80° C. until analysis.
The stored samples were thawed at 37° C., then titrated in an HIV microplaque assay, as described in Hanson, C. […] Clot removal from each sample was performed before plating.

[4] = test system: Salmonella tester strain TA100
Method in brief: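 Pre-incubation Ames method: overnight culture plus 10% Aroclor 1254-induced rat liver S-9 mix or 0.2M phosphate buffer pH 7.4, with test solutions of 0–500 μg/mL, shaken 20 min at 37° C. Plated in histidine/biotin top agar on minimal glucose agar, revertant colonies counted after 44 h at 37° C against spontaneous-revertant background.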

## Cc1oc2c(C)c3oc(=O)cc(C)c3cc2c1CN [AMT, 4′-Aminomethyl-4,5′,8-trimethylpsoralen, reference compound]
[1]; 35 mM final concentration (so in the source)
  PCR of the 1072 bp DHBV amplicon: a signal could be detected
[1]; 70 and 100 mM levels (so in the source)
  PCR of the 1072 bp DHBV amplicon: inhibited PCR amplification
[2]
  concentration at which the compound was genotoxic (toxic dose): 30 µg/mL

## Cc1cc(=O)oc2c(C)c3oc(COCCN)c(C)c3cc12 [Compound 18, 5′-(4-amino-2-oxa)butyl-4,4′,8-trimethylpsoralen]
platelets
  platelet count, treated against controls (in words): higher platelet count than samples treated with light alone
[3]
  log inactivation of HIV, dark control: 0 logs
  logs of HIV inactivated: > 7.2 logs

## Cc1oc2c(C)c3oc(=O)cc(C)c3cc2c1COCCN [Compound 2, 4′-(4-amino-2-oxa)butyl-4,5′,8-trimethylpsoralen]
[1]; all concentrations (35, 70, and 100 mM as printed), platelet concentrate
  PCR of the 1072 bp DHBV amplicon: complete inhibition of PCR
[1]; same concentrations
  PCR of the smaller DHBV amplicons (127 bp, 327 bp) compared with AMT: inhibited PCR of the smaller amplicons better than did AMT
[3]
  log inactivation of HIV, dark control: 0 logs
  logs of HIV inactivated: > 6.7 logs
[4]; TA100 + S9, 5 μg/plate
  revertant colonies per plate: −18
[4]; TA100 + S9, 10 μg/plate
  revertant colonies per plate: 1
[4]; TA100 + S9, 50 μg/plate
  revertant colonies per plate: 115
[4]; TA100 + S9, 100 μg/plate
  revertant colonies per plate: 96
[4]; TA100 − S9, 5 μg/plate
  revertant colonies per plate: 103
[4]; TA100 − S9, 10 μg/plate
  revertant colonies per plate: 46
[4]; TA100 − S9, 50 μg/plate
  revertant colonies per plate: 182
[4]; TA100 − S9, 100 μg/plate
  revertant colonies per plate: 121

## Cc1oc2c(C)c3oc(=O)cc(C)c3cc2c1CNCCCCN [Compound 6, 4′-(6-amino-2-aza)hexyl-4,5′,8-trimethylpsoralen]
platelets
  platelet count, treated against controls (in words): higher platelet count than samples treated with light alone; also recorded: counts equivalent to the 5 day control
[2]
  concentration at which the compound was genotoxic (toxic dose): 100 µg/mL
